Data from article PMC9841524, “Structure-Based Rational Design of Small α-Helical Peptides with Broad-Spectrum Activity against Multidrug-Resistant Pathogens” (Journal of Medicinal Chemistry, 2022).
Like-named read-outs stand apart in the source and are kept apart here.

Assays:
S. aureus (ATCC 29213) = test: MIC, standard microtiter dilution (CLSI); format: cell-based; conditions: broth microdilution (CLSI), CAMHB, 37 °C, 24 h
In short: (§1)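 Inoculum 10^6 CFU/mL in CAMHB against 2-fold peptide series; salt variants used 150 mM NaCl, 4.5 mM KCl, 6 mM NH4Cl, 1 mM MgCl2, 2 mM CaCl2, or 25% FBS.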

E. coli (ATCC 25922) = conditions: broth microdilution (CLSI), CAMHB, 37 °C, 24 h
In short: as §1

MRSA (ATCC BAA-1556) = conditions: broth microdilution (CLSI), CAMHB, 37 °C, 24 h
In short: as §1

[1] = tested on: P. aeruginosa (ATCC 27883); test: MIC, standard microtiter dilution (CLSI); format: cell-based, Pseudomonas aeruginosa; conditions: broth microdilution (CLSI), CAMHB, 37 °C, 24 h
In short: as §1

[2] = tested on: K. pneumoniae (ATCCBAA-1705); test: MIC, standard microtiter dilution (CLSI); format: cell-based, Klebsiella pneumoniae; conditions: broth microdilution (CLSI), CAMHB, 37 °C, 24 h
In short: as §1

[3] = tested on: human red blood cells (hRBCs); test: Hemolytic assay; format: cell-based; conditions: 2 h, 37 °C
In short: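 Percent hemolysis uses PBS as 0% and 1% Triton X-100 as 100% references, from supernatant absorbance at 567 nm. Red cells (4% in PBS, equal volume) exposed 2 h at 37 °C without agitation to 2-fold serially diluted peptide.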

[4] = Relative hydrophobicity as RP-HPLC retention time; format: physicochemical; conditions: chromatographic, Phenomenex Luna C18 4 μm 150 × 4.6 mm, linear AB gradient 1% acetonitrile/min, 0.3 mL/min, A water 0.1% TFA, B acetonitrile 0.1% TFA, 25 °C
Method: The purity analysis of the peptides was conducted on a RP-HPLC system (Shimadzu; LC-20ADXR) by using a Phenomenex (Luna) analytical C18 column (4 μm, 150 × 4.6 mm). The mass of the purified peptides was determined in the positive-ion mode using Q-TOF LC/MS (Compass Hystar 4.1, Bruker, USA). The purity (>95%) and mass data of all the synthesized peptides are provided in the Supporting Information.
8. Comparative Hydrophobicity analysis
The purity of all synthesized peptides was determined using reverse phase analytical HPLC
(Shimadzu; LC-20ADXR). Below mentioned are the conditions used to conduct the purity
Column: Phenomenex (Luna), 4 um, C18, 150 × 4.6 mm
Mobile Phase: Buffer A-Water containing 0.1% TFA,
Buffer B-Acetonitrile containing 0.1% TFA
Figure S52. HPLC chromatogram of 6a.
(1 picture or pasted object on this page, not shown here)

[5] = CD spectroscopy, helicity; format: physicochemical; parameters: key to Δ[θ]222 induced by TFE / Δ[θ]222 induced by Liposomes: mean residue molar ellipticity, mdeg cm2/(dmol × res); conditions: for [θ]222 mean residue molar ellipticity, TFE / [θ]222 mean residue molar ellipticity, Liposomes / [θ]222 mean residue molar ellipticity, PBS: CD at 222 nm, 25 °C; for [θ]222 mean residue molar ellipticity, TFE: aqueous buffer containing 50% TFE; for [θ]222 mean residue molar ellipticity, Liposomes / Δ[θ]222 induced by Liposomes: bacterial membrane mimicking liposomes; for [θ]222 mean residue molar ellipticity, Liposomes: peptide:lipid molar ratio 1:1.05; for [θ]222 mean residue molar ellipticity, PBS: phosphate buffer saline pH 7.0; for Δ[θ]222 induced by TFE / Δ[θ]222 induced by Liposomes: difference to PBS; for Δ[θ]222 induced by TFE: 50% TFE; for % of helicity induced by TFE: increase in molar ellipticity at 222 nm in the presence of 50% TFE; for % of helicity induced by Liposomes: increase in molar ellipticity at 222 nm in the presence of liposomes;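 as to % of helicity induced by Liposomes: share of the total helicity with liposomes gained over the same peptide in PBS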;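 as to % of helicity induced by TFE: share of the total helicity in TFE gained over the same peptide in PBS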
Method: The CD spectra of peptides were recorded using a Jasco J-1500 CD spectrophotometer (Jasco, Easton, MD) at 25 °C with a 1 mm path length cell. Wavelengths from 190 to 260 nm were scanned with 1.0 nm step resolution, 100 nm/min speed, 0.4 s response time, and 1 nm bandwidth. CD spectra of the peptides were collected and averaged over three scans in 10 mM sodium phosphate buffer (pH 7.2), helix-inducing solvent 50% TFE (v/v), and bacterial mimic liposomes (75 μM lipid). Spectra were corrected by subtracting a baseline spectrum containing only buffer or 50% TFE or liposomes. The mean residue molar ellipticity was calculated using the formula [drawing 3] where Ab222 is the absorbance observed at 222 nm, MRW is the mean residue molecular weight, C is the concentration in mg/mL, and L is the path length.
Table S1. RP-HPLC retention times and CD spectroscopy analysis of the selected peptides Peptide tR (min)a [θ]222b Δ[θ]222 induced by % of helicity inducedc by PBS TFE Liposomes TFE Liposomes TFE Liposomes […]
atR (min) denotes the retention time at 25°C by RP-HPLC. bThe mean residue molar ellipticity [θ] 222 (mdeg cm2/(dmol × res)) at 222 nm was measured at 25 °C in phosphate buffer saline (PBS, pH 7.0), in aqueous buﬀer containing 50% TFE (TFE), or in presence of bacterial membrane mimicking liposomes (peptide:lipid […]
c% helix induced is the increase in the molar ellipticity at 222 nm (in percentage) of a peptide in the presence of TFE or liposomes.

[6] = 10^6 CFU/mL, highest MIC of three independent experiments in triplicate
[7] = hRBC suspension 4% in PBS, hemoglobin release at 567 nm, 1% Triton X-100 = 100%
[8] = value in parentheses (μM), hRBC 4% in PBS, 567 nm

In the case of Ac-RWARRWARWWRR-NH2 [6c], the “MIC, S. aureus (ATCC 29213)” value (S. aureus (ATCC 29213); [6]) is reported as 50 µg/mL, the “MIC, S. aureus (ATCC 29213)” value (S. aureus (ATCC 29213); value in parentheses (μM)) is reported as 26.55 µM and the “MIC, E. coli (ATCC 25922)” value (E. coli (ATCC 25922); [6]) is reported as 100 µg/mL. For the same substance, the “MIC, E. coli (ATCC 25922)” value (E. coli (ATCC 25922); value in parentheses (μM)) was 53.10 µM, the “MIC, MRSA (ATCC BAA-1556)” value (MRSA (ATCC BAA-1556); [6]) was 50 µg/mL and the “MIC, MRSA (ATCC BAA-1556)” value (MRSA (ATCC BAA-1556); value in parentheses (μM)) was 26.55 µM. The “MIC, P. aeruginosa (ATCC 27883)” value [1, 6] was 100 µg/mL, the “MIC, P. aeruginosa (ATCC 27883)” value ([1]; value in parentheses (μM)) was 53.10 µM and the “MIC, K. pneumoniae (ATCCBAA-1705)” value [2, 6] was > 100 µg/mL. For the same substance, the “MIC, K. pneumoniae (ATCCBAA-1705)” value ([2]; value in parentheses (μM)) was > 53.10 µM, the “HC50 (concentration at which 50% hemolysis was observed)” value [3, 7] was 110 µg/mL and the “HC50 (concentration at which 50% hemolysis was observed)” value [3, 8] was 58.41 µM. For the same substance, the “tR, RP-HPLC retention time (measure of overall hydrophobicity)” value (shortened to “tR, RP-HPLC retention time”) [4] was 34.61 min, the “[θ]222 mean residue molar ellipticity, TFE” value [5] was -18280 mdeg cm2/(dmol × res) and the “[θ]222 mean residue molar ellipticity, Liposomes” value [5] was -20250 mdeg cm2/(dmol × res). The “[θ]222 mean residue molar ellipticity, PBS” value [5] was -10947 mdeg cm2/(dmol × res), the “Δ[θ]222 induced by TFE” value [5] was -7332 and the “Δ[θ]222 induced by Liposomes” value [5] was -9303. The “% of helicity induced by TFE” value [5] was 40.11% and the “% of helicity induced by Liposomes” value [5] was 45.93%.

In the case of Ac-KWLKKWLKWWKK-NH2 [8d], the “MIC, S. aureus (ATCC 29213)” value (S. aureus (ATCC 29213); [6]) is reported as 3.1 µg/mL, the “MIC, S. aureus (ATCC 29213)” value (S. aureus (ATCC 29213); value in parentheses (μM)) is reported as 1.72 µM and the “MIC, E. coli (ATCC 25922)” value (E. coli (ATCC 25922); [6]) is reported as 6.2 µg/mL. The “MIC, E. coli (ATCC 25922)” value (E. coli (ATCC 25922); value in parentheses (μM)) was 3.45 µM, the “MIC, MRSA (ATCC BAA-1556)” value (MRSA (ATCC BAA-1556); [6]) was 6.2 µg/mL and the “MIC, MRSA (ATCC BAA-1556)” value (MRSA (ATCC BAA-1556); value in parentheses (μM)) was 3.45 µM. The “MIC, P. aeruginosa (ATCC 27883)” value [1, 6] was 6.2 µg/mL, the “MIC, P. aeruginosa (ATCC 27883)” value ([1]; value in parentheses (μM)) was 3.45 µM and the “MIC, K. pneumoniae (ATCCBAA-1705)” value [2, 6] was 12.5 µg/mL. For the same substance, the “MIC, K. pneumoniae (ATCCBAA-1705)” value ([2]; value in parentheses (μM)) was 6.95 µM, the “HC50 (concentration at which 50% hemolysis was observed)” value [3, 7] was 145 µg/mL and the “HC50 (concentration at which 50% hemolysis was observed)” value [3, 8] was 80.59 µM. The “tR, RP-HPLC retention time” value [4] was 39.25 min, the “[θ]222 mean residue molar ellipticity, TFE” value [5] was -16759 mdeg cm2/(dmol × res) and the “[θ]222 mean residue molar ellipticity, Liposomes” value [5] was -24786 mdeg cm2/(dmol × res). For the same substance, the “[θ]222 mean residue molar ellipticity, PBS” value [5] was -10222 mdeg cm2/(dmol × res), the “Δ[θ]222 induced by TFE” value [5] was -6537 and the “Δ[θ]222 induced by Liposomes” value [5] was -14564. The “% of helicity induced by TFE” value [5] was 39.00% and the “% of helicity induced by Liposomes” value [5] was 58.75%.

For Ac-KWAKKWAKWWKK-NH2 [6d], the “MIC, S. aureus (ATCC 29213)” value (S. aureus (ATCC 29213); [6]) was 50 µg/mL, the “MIC, S. aureus (ATCC 29213)” value (S. aureus (ATCC 29213); value in parentheses (μM)) was 29.15 µM and the “MIC, E. coli (ATCC 25922)” value (E. coli (ATCC 25922); [6]) was 100 µg/mL. For the same substance, the “MIC, E. coli (ATCC 25922)” value (E. coli (ATCC 25922); value in parentheses (μM)) was 58.30 µM, the “MIC, MRSA (ATCC BAA-1556)” value (MRSA (ATCC BAA-1556); [6]) was 100 µg/mL and the “MIC, MRSA (ATCC BAA-1556)” value (MRSA (ATCC BAA-1556); value in parentheses (μM)) was 58.30 µM. The “MIC, P. aeruginosa (ATCC 27883)” value [1, 6] was 100 µg/mL, the “MIC, P. aeruginosa (ATCC 27883)” value ([1]; value in parentheses (μM)) was 58.30 µM and the “MIC, K. pneumoniae (ATCCBAA-1705)” value [2, 6] was 100 µg/mL. The “MIC, K. pneumoniae (ATCCBAA-1705)” value ([2]; value in parentheses (μM)) was 58.30 µM, the “HC50 (concentration at which 50% hemolysis was observed)” value [3, 7] was 345 µg/mL and the “HC50 (concentration at which 50% hemolysis was observed)” value [3, 8] was 201.15 µM. For the same substance, the “tR, RP-HPLC retention time” value [4] was 32.81 min, the “[θ]222 mean residue molar ellipticity, TFE” value [5] was -18432 mdeg cm2/(dmol × res) and the “[θ]222 mean residue molar ellipticity, Liposomes” value [5] was -24274 mdeg cm2/(dmol × res). For the same substance, the “[θ]222 mean residue molar ellipticity, PBS” value [5] was -13464 mdeg cm2/(dmol × res), the “Δ[θ]222 induced by TFE” value [5] was -4968 and the “Δ[θ]222 induced by Liposomes” value [5] was -10810. The “% of helicity induced by TFE” value [5] was 26.95% and the “% of helicity induced by Liposomes” value [5] was 44.53%.
